Source: patent US4596808A, “Pharmacologically active 3-substituted beta-carbolines useful as tranquilizers” (Schering Aktiengesellschaft, priority 1980, dated 1986)

Experiments:
benzodiazepine receptor [1] = assay: In vivo inhibition of 3H-flunitrazepam binding to the benzodiazepine receptor in living brain (ED50); conditions: mice, subcutaneous, 3H-flunitrazepam i.v. 15 min later
benzodiazepine receptor [2] = assay: Displacement of 3H-flunitrazepam from benzodiazepine receptors in vitro (IC50); type: binding; conditions: rat forebrain, 3H-flunitrazepam 1.0 nM, 0° C.
Description: For example, it is known that certain locations in the central nervous system of vertebrates have a high specific affinity for bonding 1,4 and 1,5-benzodiazepines. (See, e.g., R. F. Squires & C. Braestrup, Nature [London] 266 [1977], 734, which is incorporated by reference herein). These locations are called benzodiazepine receptors.
This displacement activity of the compounds of this invention has been determined by measuring IC50 and ED50 values. The IC50 value is the concentration which causes a 50% displacement of the specific binding of ^3 H-flunitrazepam (1.0 nM, 0° C.) in samples with a total volume of 0.55 ml of a suspension of brain membrane, e.g., from rats.
The displacement test is carried out as follows:
0.5 ml of a suspension of untreated rat forebrain in 25 mM KH2 PO4, at a pH of 7.1 (5-10 mg of tissue per sample) were incubated with ^3 H-diazepam (specific activity 14.4 Ci/millimole, 1.9 nM) or ^3 H-flunitrazepam (specific activity 87 Ci/millimole, 1.0 nM) for 40-60 minutes at 0° C. After incubation, the suspension is filtered through a glass frit, the residue is washed twice with a cold buffer solution and the radioactivity is measured by scintillation counting.
The test is then repeated, except prior to addition of the radioactively marked benzodiazepine, a given amount or an excess amount of the compound whose displacement activity is to be ascertained, is added. The IC50 value can then be computed from the test results obtained.

| SMILES | In vivo ED50, inhibition of 3H flunitrazepam binding (Affinity for the benzodiazepine receptor) (benzodiazepine receptor [1]) | In vitro IC50, inhibition of 3H flunitrazepam binding (Affinity for the benzodiazepine receptor) (benzodiazepine receptor [2]) |
| --- | --- | --- |
| CCCCC(=NO)c1cc2c(cn1)[nH]c1ccccc12 | > 250 mg/kg | 0.468 µg/mL |
| CN(C)C=NC(=O)c1cc2c(cn1)[nH]c1ccccc12 | > 250 mg/kg | 0.09 µg/mL |
| c1ccc2c(c1)[nH]c1cnc(-c3nc[nH]n3)cc12 | 26 mg/kg | 0.104 µg/mL |
| CONC=NC(=O)c1cc2c(cn1)[nH]c1ccccc12 | > 250 mg/kg | 0.1 µg/mL |
| Cn1cnc(-c2cc3c(cn2)[nH]c2ccccc23)n1 | 145 mg/kg | > 0.4 µg/mL |
| Cc1nc(-c2cc3c(cn2)[nH]c2ccccc23)n(C)n1 | > 300 mg/kg | 0.179 µg/mL |
| Cc1n[nH]c(-c2cc3c(cn2)[nH]c2ccccc23)n1 | 139 mg/kg | 0.096 µg/mL |
| Cc1noc(-c2cc3c(cn2)[nH]c2ccccc23)n1 | 15 mg/kg | 0.00056 µg/mL |
| O=C1CC(c2cc3c(cn2)[nH]c2ccccc23)=NN1 | > 250 mg/kg | > 0.1 µg/mL |
| CN1N=C(c2cc3c(cn2)[nH]c2ccccc23)CC1=O | > 250 mg/kg | > 0.4 µg/mL |
| O=C1CC(c2cc3c(cn2)[nH]c2ccccc23)=NO1 | 100 mg/kg | 0.156 µg/mL |
| C(=Nn1cnnc1)c1cc2c(cn1)[nH]c1ccccc12 | > 250 mg/kg | > 0.1 µg/mL |
| CN1CCN(N=Cc2cc3c(cn2)[nH]c2ccccc23)CC1 | 210 mg/kg | 0.1 µg/mL |
| C(=NNc1ccccc1)c1cc2c(cn1)[nH]c1ccccc12 [CHNNHC6 H5, beta-carboline-3-carboxaldehyde-phenylhydrazone] | > 250 mg/kg |  |
| CNN=Cc1cc2c(cn1)[nH]c1ccccc12 [CHNNHCH3, beta-carboline-3-carboxaldehyde-methylhydrazone] | 92 mg/kg | 0.149 µg/mL |
| NC(=O)NN=Cc1cc2c(cn1)[nH]c1ccccc12 [CHNNHCONH2, beta-carboline-3-carboxaldehyde-semicarbazone] | > 250 mg/kg | > 0.1 µg/mL |
| C(=NOCc1ccccc1)c1cc2c(cn1)[nH]c1ccccc12 [CHNOCH2 C6 H5, beta-carboline-3-carboxaldehyde-oxime-benzylether] | > 250 mg/kg | 0.0525 µg/mL |
| CCOC(=O)CC(=O)c1cc2c(cn1)[nH]c1ccccc12 [COCH2 COOC2 H5, 3-carboethoxy-acetyl-beta-carboline] | > 250 mg/kg |  |
| O=C(N=CNO)c1cc2c(cn1)[nH]c1ccccc12 [CONCHNHOH, N-[(hydroxyamino)methylene]-beta-carboline-carboxamide] | 93 mg/kg |  |
